# Test results as given in patent US20180140572A1, “COMPOSITIONS COMPRISING A CANCER STEMNESS INHIBITOR AND AN IMMUNOTHERAPEUTIC AGENT FOR USE IN TREATING CANCER” (Boston Biomedical, Inc., priority 2015, published 2018).
# Tested on: FaDu sphere cultures
# Assay: qPCR cancer stem cell array in FaDu sphere cultures
# Format: cell-based
# Parameters: % Change ATM / % Change MERTK / % Change NOTCH2 / % Change LATS1 / % Change ITGA2 / % Change SMO / % Change TGFBR1 / % Change MAML1 / % Change WWC1 / % Change ITGA6 / % Change ITGB1 / % Change AXL / % Change KITLG / % Change JAK2 / % Change YAP1 / % Change BMI1 / % Change NOTCH1 / % Change ATXN1 / % Change ERBB2 / % Change SIRT1 / % Change WEE1 / % Change FGFR2 / % Change DDR1 / % Change GSK3B / % Change ENG / % Change DACH1 / % Change ALCAM / % Change HDAC1 / % Change CD44 / % Change HPRT1 / % Change IKBKB / % Change DNMT1 / % Change ETFA / % Change FOXP1 / % Change FLOT2 / % Change CHEK1 / % Change MUC1 / % Change CD24 / % Change NFKB1 / % Change NANOG / % Change ACTB / % Change EPCAM / % Change STAT3 / % Change TWIST2 / % Change PLAUR / % Change EGF / % Change ALDH1A1 / % Change RPLP0 / % Change TAZ / % Change JAG1 / % Change KLF17 / % Change ID1 / % Change ITGA4 / % Change IL8 / % Change MYC / % Change CD34 / % Change LIN28A / % Change POU5F1 / % Change PECAM1: dose or concentration left out as unconfirmed
# Conditions: 6 hours, normalized to GAPDH
# Experimental: The changes in gene expression following treatment with BBI608 were analyzed. FaDu sphere cultures were treated for 6 hours with DMSO (control) or BBI608 at […]. Total RNA was isolated, reversed transcribed and the generated cDNA was analyzed using a qPCR cancer stem cell array. Data was normalized to the expression of the house keeping gene, GAPDH.
structure (smiles),measurement,setting,value
"CC(=O)c1cc2c(o1)C(=O)c1ccccc1C2=O [BBI608, 2-acetylnaphtho[2,3-b]furan-4,9-dione]",% Change ACTB,gene ACTB,−24.49%
same,% Change ALCAM,gene ALCAM,−36.13%
same,% Change ALDH1A1,gene ALDH1A1,−18.18%
same,% Change ATM,gene ATM,−68.65%
same,% Change ATXN1,gene ATXN1,−45.26%
same,% Change AXL,gene AXL,−48.50%
same,% Change B2M,gene B2M,−27.69%
same,% Change BMI1,gene BMI1,−47.40%
same,% Change CD24,gene CD24,−26.46%
same,% Change CD34,gene CD34,−88.18%
same,% Change CD44,gene CD44,−35.44%
same,% Change CHEK1,gene CHEK1,−28.88%
same,% Change DACH1,gene DACH1,−36.55%
same,% Change DDR1,gene DDR1,−38.59%
same,% Change DNMT1,gene DNMT1,−32.09%
same,% Change EGF,gene EGF,−19.07%
same,% Change ENG,gene ENG,−37.62%
same,% Change EPCAM,gene EPCAM,−22.87%
same,% Change ERBB2,gene ERBB2,−43.81%
same,% Change ETFA,gene ETFA,−31.12%
same,% Change FGFR2,gene FGFR2,−41.18%
same,% Change FLOT2,gene FLOT2,−29.19%
same,% Change FOXP1,gene FOXP1,−29.76%
same,% Change GSK3B,gene GSK3B,−38.06%
same,% Change HDAC1,gene HDAC1,−36.10%
same,% Change HPRT1,gene HPRT1,−33.81%
same,% Change ID1,gene ID1,−12.68%
same,% Change IKBKB,gene IKBKB,−32.11%
same,% Change IL8,gene IL8,−7.62%
same,% Change ITGA2,gene ITGA2,−60.71%
same,% Change ITGA4,gene ITGA4,−11.52%
same,% Change ITGA6,gene ITGA6,−54.63%
same,% Change ITGB1,gene ITGB1,−50.45%
same,% Change JAG1,gene JAG1,−14.24%
same,% Change JAK2,gene JAK2,−47.94%
same,% Change KITLG,gene KITLG,−47.99%
same,% Change KLF17,gene KLF17,−90.18%
same,% Change LATS1,gene LATS1,−60.75%
same,% Change LIN28A,gene LIN28A,−87.52%
same,% Change MAML1,gene MAML1,−52.82%
same,% Change MERTK,gene MERTK,−65.78%
same,% Change MUC1,gene MUC1,−27.42%
same,% Change MYC,gene MYC,−3.91%
same,% Change NANOG,gene NANOG,−93.34%
same,% Change NFKB1,gene NFKB1,−25.54%
same,% Change NOTCH1,gene NOTCH1,−46.24%
same,% Change NOTCH2,gene NOTCH2,−64.37%
same,% Change PECAM1,gene PECAM1,−70.26%
same,% Change PLAUR,gene PLAUR,−20.64%
same,% Change POU5F1,gene POU5F1,−77.31%
same,% Change RPLP0,gene RPLP0,−17.48%
same,% Change SIRT1,gene SIRT1,−43.35%
same,% Change SMO,gene SMO,−55.56%
same,% Change STAT3,gene STAT3,−22.87%
same,% Change TAZ,gene TAZ,−15.09%
same,% Change TGFBR1,gene TGFBR1,−53.34%
same,% Change TWIST2,gene TWIST2,−21.59%
same,% Change WEE1,gene WEE1,−42.86%
same,% Change WWC1,gene WWC1,−51.64%
same,% Change YAP1,gene YAP1,−47.45%
